According to patent US20010053797A1 (priority 1998, published 2001):
Entries after “also recorded” stand apart in the source; their conditions may differ.

Assays:
[1] = test system: murine cortical cell cultures (neurons), NMDA receptor; experiment: NMDA neurotoxicity in murine cortical cell cultures, medium LDH; type: cell-based, Swiss Webster mice; details: compound added with low micromolar NMDA, 20-25 h
Description: Cultures were incubated in 5% CO2 at 37° C.
Experiments were conducted at 13-15 days in vitro.

[2] = test system: cortical neurons and glia; experiment: Chemical hypoxia (azide) and glucose deprivation in cortical cell cultures, medium LDH; type: cell-based, Swiss Webster mice; details: 3 mM azide 30 min with compound; LDH 21-25 h later
Description: Primary cultures containing both cortical neurons and glia were prepared from gravid Swiss Webster mice as previously described. (Regan , R. F. and Choi, D. W., The effect of NMDA, AMPA/kainate, and calcium channel antagonists on traumatic cortical neuronal injury in culture, Brain Res, 633: 236-242, 1994). Plating medium consisted of Eagle's minimal essential medium (MEM), 5% equine serum, 5% fetal bovine serum, 2 mM glutamine, and 23 mM glucose. Cultures were incubated in 5% CO2 at 37° C. Two-thirds of the culture medium was exchanged twice weekly with MEM containing 10% equine serum, 2 mM glutamine, and 23 mM glucose. Glial cell division was inhibited at 4-7 days in vitro with 10^−5 M cytosine arabinoside.
Chemical hypoxia was induced with 3 mM azide, which unlike cyanide is not volatile and has little effect on copper-zinc and manganese superoxide dismutases at low millimolar concentrations. (Misra, H. P. and Fridovich, I., Inhibition of superoxide dismutases by azide, Arch Biochem Biophys 189: 317-322, 1978). Experiments were conducted at 13-16 days in vitro in a glucose-free buffer containing 116 mM NaCl, 5.4 mM KCl, 1.8 mM CaCl2, 1 mM NaH2PO4, 26.2 mM NaHCO3, 0.8 mM MgSO4, and amino acids (MEM amino acids, Sigma Chemical Co., St. Louis, Mo., U.S.A.). After incubation for 30-90 min at 37° C. in 5% CO2, cultures were washed into MEM containing 10 mM glucose and were returned to the incubator.
Cell death was estimated 21-25 h after azide exposure by inspection under phase-contrast microscopy, and was quantified by assaying lactate dehydrogenase (LDH) activity in the medium, as previously described. (Regan, R. F. and Panter, S. S., Traumatic neuronal injury in cortical cell culture is attenuated by 21-aminosteroids, Brain Res, 682: 144-150, 1995). Medium LDH in this culture system is an accurate marker of neuronal death that correlates well with cell counts. (Koh, J. Y. and Choi, D. W., Vulnerability of cultured cortical neurons to damage by excitotoxins: Differential susceptibility of neurons containing NADPH-diaphorase, J Neurosci 8: 2153-2163, 1988). […] (Koh, J. Y. and Choi, D. W., 1988). The LDH activity in the medium of sister cultures exposed to sham wash alone was subtracted from all values to obtain the LDH signal associated specifically with neurotoxin exposure.
Data were analyzed by one-way analysis of variance. Differences between groups and a single mean were assessed with the Dunnett multiple comparisons test; when groups were compared to more than one mean, the Tukey-Kramer post hoc test was used.

[3] = test system: cortical neurons and glia; details: 10-100 μM, 30 min in MEM without azide

OCCS [mercaptoethanol]
effect on NMDA neurotoxicity (neuronal death, medium LDH) [1]: markedly enhanced | effect on NMDA neurotoxicity (neuronal death, medium LDH) ([1]; listed as Mercaptoethanol): increased NMDA neurotoxicity to a degree comparable to that of glutathione | effect on azide neurotoxicity in glucose-free buffer (neuronal death) [2]: potentiate; also recorded: concentration-toxicity profile that was similar to GSH | toxicity of compound alone [3]: nontoxic
